For this test, the target named is T1, GATOR2/Sestrin2 complexes (Homo sapiens, UniProt P58004).
T1 construct: endogenous in cells; host or cells: HEK293T cells stably expressing FLAG-WDR24 (lentiviral, pLJM60)
T1 sequence (P58004 1-480): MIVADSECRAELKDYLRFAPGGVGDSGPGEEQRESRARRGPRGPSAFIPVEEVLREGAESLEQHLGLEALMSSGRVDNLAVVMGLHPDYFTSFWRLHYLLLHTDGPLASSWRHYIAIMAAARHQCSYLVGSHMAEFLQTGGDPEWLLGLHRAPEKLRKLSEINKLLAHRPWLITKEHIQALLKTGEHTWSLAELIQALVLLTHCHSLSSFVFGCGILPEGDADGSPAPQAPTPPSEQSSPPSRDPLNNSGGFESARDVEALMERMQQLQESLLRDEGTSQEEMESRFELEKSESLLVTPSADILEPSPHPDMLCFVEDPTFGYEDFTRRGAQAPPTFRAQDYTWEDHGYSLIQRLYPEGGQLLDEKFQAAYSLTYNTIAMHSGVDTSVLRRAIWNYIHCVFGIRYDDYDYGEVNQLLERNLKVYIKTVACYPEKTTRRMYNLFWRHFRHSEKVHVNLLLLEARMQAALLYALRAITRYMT
Description: In vitro PPI assay (Method 1; Western blot assay): Sestrin2 bound to GATOR2 after compound addition to immunoprecipitated FLAG-WDR24 complex. The format is binding. To be noted: 25 μM, % activity relative to leucine (25 μM = 100%). The text has this:
This screening assay measured test compound activity in vitro on GATOR2/Sestrin2 complexes purified via immunoprecipitation of stably expressed FLAG-WDR24 from HEK293T cells. HEK293T cells (293 Ts) were engineered to stably express N-terminally tagged FLAG-WDR24 via transduction by lentivirus. Lentiviruses were produced by co-transfection of the lentiviral transfer vector pLJM60 with the […] into HEK-293T cells using the XTremeGene 9 transfection reagent (Roche Diagnostics). The media was changed 24 hours post-transfection to Dulbecco's Modified Eagle's media (DMEM) supplemented with 30% Inactivated Fetal Serum. The virus-containing supernatants were collected 48 and 72 hours after transfection and passed through a 0.45 μm filter to eliminate cells. Target cells in 6-well tissue culture plates were infected in media containing 8 μg/mL polybrene and spin infections were performed by centrifugation at 2,200 rpm for 1 hour. Twenty-four hours after infection, the virus was removed and the cells selected with the appropriate antibiotic. Cells were then grown in DMEM supplemented with 10% fetal bovine serum and antibiotics.
Seventy-two hours later, cells were placed in standard RPMI media formulated with no amino acids and supplemented with 5 mM Glucose (−AA RPMI, US Biological Life Sciences) for 1 hour then subsequently lysed in lysis buffer (40 mM HEPES, 1% Triton, 10 mM sodium β-glycerophosphate, 10 mM sodium pyrophosphate, 2.5 mM MgCl2 and protease inhibitors). To isolate the FLAG-WDR24/endogenous-Sestrin2 complex, crude lysate (equivalent to 2-4 mg of total protein) in a volume of 1 ml was subjected to immunoprecipitation with 30 μl of anti-flag resin (SIGMA) for 2 hours at 4° C., washed twice in cold lysis buffer plus 0.5M NaCl and resuspended in 1 ml of cold cytosolic buffer (40 mM HEPES pH 7.4, 140 mM KCl, 10 mM NaCl, 2.5 mM MgCl2, 0.1% TritonX-100). […] After the incubation period, samples were centrifuged to pellet the FLAG-WDR24/endogenous-Sestrin2 complex bound to the anti-flag resin, the supernatant was completely removed and resin was resuspended in SDS-PAGE sample buffer and boiled for 5 minutes. Samples were then processed by SDS-PAGE and western blots were performed with anti-FLAG (SIGMA) and anti-Sestrin2 (Cell Signaling Technology) antibodies as described in L. Chantranupong, et al., Cell Reports 9:1-8 (2014).
The resulting western blots were scanned and band intensities corresponding to Sestrin2 and FLAG-WDR24 were quantified using the LI-COR® imaging platform. To determine the amount of Sestrin2 bound to GATOR2 for each condition, the band intensity for Sestrin2 was normalized to the band intensity of FLAG-WDR24. […]
72 hours later, cells were placed in standard RPMI media formulated with no amino acids and supplemented with 5 mM Glucose (−AA RPMI, USBiological Life Sciences) for 1 hour then subsequently lysed in lysis buffer (40 mM HEPES, 1% Triton, 10 mM Sodium Beta-Glycerophosphate, 10 mM Sodium Pyrophosphate, 2.5 mM MgCl2 and protease inhibitors). The Flag-WDR24/endogenous-Sestrin2 complex was isolated as follows: crude lysate (equivalent to 2-4 mg of total protein) in a volume of 1 ml was subjected to immunoprecipitation (IP) with 30 μl of anti-flag resin (SIGMA) for 2 hours at 4° C., washed twice in cold lysis buffer plus 0.5M NaCl and resuspended in 1 ml of cold cytosolic buffer (40 mM HEPES pH 7.4, 140 mM KCl, 10 mM NaCl, 2.5 mM MgCl2, 0.1% TritonX-100). Compounds were then added to each sample at a given concentration of 25 μM and incubated with rotation at 4° C. for 30 minutes. After the incubation period, samples were centrifuged to pellet the Flag-WDR24/endogenous-Sestrin2 complex bound to the anti-flag resin, the supernatant was completely removed and resin was resuspended in sodium dodecyl sulfate-polyacrylamide gel electrophoresis (SDS-PAGE) sample buffer and boiled for 5 minutes. […]
For orientation: In western blotting, separated proteins are transferred to a membrane and probed.
As for `CC(C)C[C@H](NS(=O)(=O)C1CCCCC1)C(=O)O` [Compound I-17, (S)-2-(cyclohexanesulfonamido)-4-methylpentanoic Acid], the “Activity of Leucine: % Activity” value is “C (a % activity relative to leucine of between -40 and 40%)”. The same measure for `CC(C)C[C@H](NS(=O)(=O)Cc1ccccc1)C(=O)O` [Compound I-18, (S)-4-methyl-2-(phenylmethylsulfonamido)pentanoic Acid]: “C (a % activity relative to leucine of between -40 and 40%)”. As for `CC(C)C[C@H](NS(C)(=O)=O)C(=O)O` [Compound I-19, (S)-4-methyl-2-(methylsulfonamido)pentanoic Acid], the entry is “C (a % activity relative to leucine of between -40 and 40%)”.

For `CC(C)C[C@H](N)C(=O)Nc1ccccc1` [Compound I-20, (S)-2-amino-4-methyl-N-phenylpentanamide], the “Activity of Leucine: % Activity” value is “C (a % activity relative to leucine of between -40 and 40%)”. `CNC(=O)[C@@H](N)CC(C)C` [Compound I-21, (S)-2-amino-N,4-dimethylpentanamide]: the “Activity of Leucine: % Activity” value is “C (a % activity relative to leucine of between -40 and 40%)”.

As to `CC(C)C[C@H](NC(=O)C1CCCCC1)C(=O)O` [Compound I-22, (S)-2-(Cyclohexanecarboxamido)-4-methylpentanoic Acid], the “Activity of Leucine: % Activity” value is “C (a % activity relative to leucine of between -40 and 40%)”. With `CN[C@@H](CC(C)C)C(=O)O.Cl` [Compound I-24], the “Activity of Leucine: % Activity” value is “A (a % activity relative to leucine of ≥40%)”. The same measure for `CC(C)C[C@H](NS(=O)(=O)c1ccccc1)C(=O)O` [Compound I-25, (S)-4-methyl-2-(phenylsulfonamido)pentanoic Acid]: “C (a % activity relative to leucine of between -40 and 40%)”. The same measure for `CC(C)C[C@H](Nc1ccccc1)C(=O)O` [Compound I-26, (S)-4-methyl-2-(phenylamino)pentanoic Acid]: “C (a % activity relative to leucine of between -40 and 40%)”; for `CC(C)[C@H](O)[C@H](N)C(=O)O` [Compound I-27]: “A (a % activity relative to leucine of ≥40%)”. As for `CC(C)[C@H](N)C(=O)O` [Compound I-28], the entry is “C (a % activity relative to leucine of between -40 and 40%)”. As for `CC[C@@H](C)[C@H](N)C(=O)O` [Compound I-29], the “Activity of Leucine: % Activity” value is “A (a % activity relative to leucine of ≥40%)”. As for `CSCC[C@H](N)C(=O)O` [Compound I-30], the entry is “A (a % activity relative to leucine of ≥40%)”; as for `CCCC[C@H](N)C(=O)O` [Compound I-31], “A (a % activity relative to leucine of ≥40%)”. Regarding `CC(C)C[C@](C)(N)C(=O)O` [Compound I-32], the “Activity of Leucine: % Activity” value was “A (a % activity relative to leucine of ≥40%)”. As for `CC(C)CC(N)S(=O)(=O)O` (stereo not drawn) [Compound I-33], the entry is “C (a % activity relative to leucine of between -40 and 40%)”; as for `CC(C)C[C@H](N)CC(=O)O` [Compound I-34], “C (a % activity relative to leucine of between -40 and 40%)”. As for `N[C@@H](CC1CC1)C(=O)O` [Compound I-35], the entry is “A (a % activity relative to leucine of ≥40%)”; as for `CC(=O)N[C@@H](CC(C)C)C(=O)O` [Compound I-36, (S)-2-acetamido-4-methylpentanoic Acid], “B (a % activity relative to leucine of ≤−40%)”.

For `CC(C)C[C@H](N)B1OC(C)(C)C(C)(C)O1` [Compound I-38], the “Activity of Leucine: % Activity” value is “C (a % activity relative to leucine of between -40 and 40%)”.

Regarding `COCCC(N)C(=O)O` (stereo not drawn) [Compound I-39], the “Activity of Leucine: % Activity” value was “C (a % activity relative to leucine of between -40 and 40%)”. As for `N[C@H](CC1CCCC1)C(=O)O` [Compound I-40], the “Activity of Leucine: % Activity” value is recorded as “A (a % activity relative to leucine of ≥40%)”.

As for `CC(C)C[C@H](N)C(=O)O` [Compound I-44], the “Activity of Leucine: % Activity” value is “A (a % activity relative to leucine of ≥40%)”. The same measure for `COC(=O)/C=C/C(=O)N[C@@H](CC(C)C)C(=O)O` [Compound I-45, (S,E)-2-(4-methoxy-4-oxobut-2-enamido)-4-methylpentanoic Acid]: “B (a % activity relative to leucine of ≤−40%)”; for `CC(C)C(F)(F)[C@H](N)C(=O)O` [Compound I-46, (R)-2-amino-3,3-difluoro-4-methylpentanoic Acid]: “C (a % activity relative to leucine of between -40 and 40%)”; for `CC(C)C(F)(F)[C@@H](N)C(=O)O` [Compound I-47, (S)-2-amino-3,3-difluoro-4-methylpentanoic Acid]: “C (a % activity relative to leucine of between -40 and 40%)”. The same measure for `CC(C)(C)C[C@H](N)C(N)=O` [Compound I-48]: “C (a % activity relative to leucine of between -40 and 40%)”; for `CN[C@@H](CC(C)(C)C)C(N)=O` [Compound I-49]: “C (a % activity relative to leucine of between -40 and 40%)”. As for `CN[C@@H](CC(C)(C)C)C(=O)O` [Compound I-50], the “Activity of Leucine: % Activity” value was “C (a % activity relative to leucine of between -40 and 40%)”. The same measure for `CC(C)C[C@H](N)C(=O)NS(C)(=O)=O.Cl` [Compound I-147, (S)-2-amino-4-methyl-N-(methylsulfonyl)pentanamide Hydrochloride]: “A (a % activity relative to leucine of ≥40%)”. As for `CC(C)C[C@H](N)C(=O)NS(=O)(=O)c1ccccc1` [Compound I-148], the entry is “A (a % activity relative to leucine of ≥40%)”; as for `CC(C)C[C@H](N)C(=O)N(C)C` [Compound I-149], “C (a % activity relative to leucine of between -40 and 40%)”; as for `CC(C)C[C@H](N)C(=O)N(C(C)C)C(C)C` [Compound I-150], “C (a % activity relative to leucine of between -40 and 40%)”. As for `CC(C)C[C@H](N)C(=O)N1CCCCC1` [Compound I-151], the “Activity of Leucine: % Activity” value was “C (a % activity relative to leucine of between -40 and 40%)”.

Regarding `CC(C)C[C@H](N)C(=O)N(C)CC(C)C` [Compound I-152], the “Activity of Leucine: % Activity” value is “C (a % activity relative to leucine of between -40 and 40%)”. The same measure for `CC(C)C[C@H](N)C(=O)N1CCCC[C@@H]1C` [Compound I-153]: “C (a % activity relative to leucine of between -40 and 40%)”.
